Columns and labels:
PD-L2 mRNA [1] = assay: Doxorubicin-induced PD-L2 mRNA in C2C12 cells with enzymatic inhibitors; format: cell-based, mouse; details: 500 nM doxorubicin, 48 hours
Description: C2C12 cells (FIG. 9) were treated with 500 nM doxorubicin for 48 hours in the presence or absence of the following inhibitors at the indicated concentrations: IKKi (50 μM), PIMi (1 μM), rotenone (1 μM), JAKi (3 μM), rapamycin (50 nM) and metformin (5 mM) or cultured in pyruvate-depleted media (FIG. 9A). In addition, C2C12 cells were incubated for 6 hours in the presence or absence of TLRs agonists (Mouse TLR1-9 Agonist kit. Invivogen): TLR1/2 agonist (Pam3CSK4, 300 ng/ml), TLR2 agonist (HKLM, 10^8 cells/ml), TLR3 agonist (Poly (I:C) HMW and Poly (I:C) LMW, 10 μg/ml), TLR4 agonist (LPS-EK, 10 μg/ml), TRL5 agonist (FLA-ST, 1 μg/ml), TRL6/2 agonist (FSL-1, 100 ng/ml), TRL7 agonist (ssRNA40, 5 μg/ml) and TLR9 agonist (ODN1826, 5 μM). Total RNA was isolated using TRI Reagent (Sigma-Aldrich #T9424) according to the manufacturer's instructions.
(§1) The isolated RNA was quantified using a nanodrop machine NanoVue (GE Healthcare). cDNA synthesis was performed with 2-7 μg of total RNA using the “iScript Advanced cDNA Synthesis kit” from BIO-RAD (#1725037). Quantitative real-time PCR was carried out with diluted cDNA (1:10) and “GoTaq qPCR Master Mix” (Promega A6002). Reactions were performed in triplicate in a 15 μl volume reaction mix prepared as follow: 7.5 μl 2X GoTaq qPCR Master Mix; 0.6 μl of pre-mixed primers (10 μM forward primer and 10 μM reverse primer); 1.9 μl nuclease-free water and 5 μl template cDNA (previously diluted 1:10).
The qRT-PCR reaction was performed on a 7500 Fast Real-Time PCR System (Applied Biosystems) using “MicroAmp Fast Optical 96-well reaction plate with barcode” (Thermo Fisher #4346906) and “MicroAmp Optical adhesive film” (Thermo Fisher #4311971). The reaction consisted in two holding stages (50° C. for 2:00 min and 95° C. for 10:00 min) and 40 amplification reactions (95° C. for 00:15 min/60° C. for 01:00 min/72° C. for 00:30 min) followed by a Melt Curve Stage.
The Ct values of the genes of interest were averaged and normalized to the housekeeping gene β-actin. For each cell line and condition at least two independent experiments were performed.

senescent cells = details: cited from earlier work; for elimination of senescent cells: literature reports
[2] = tested on: SK-Mel-103, UT-SCC-38 and UT-SCC-42B cells; assay: SA-β gal / senescent response in human tumor cell lines; format: cell-based; details: SK-Mel-103 cells, 7 days
Description: SK-Mel-103, UT-SCC-38 and UT-SCC-42B the cell lines were maintained in DMEM (Gibco) supplemented with 10% fetal bovine serum (Gibco) with antimycotic-antibiotic (Gibco), and incubated in 20% O2 sand 5% CO2 at 37° C. SK-Mel-103 and UT-SCC-42B cells were split 1:10 every 3-4 days. UT-SCC-38 were split 1:3 every 3-4 days.
Eight days before the assay 20.000 SK-Mel-103 cells and 40.000 UT-SCC-38 and UT-SCC-42B cells were seeded into 6 well tissue culture plates (Falcon). The next day cells were treated with 2 μM Palbociclib. SK-Mel-103 cells were also treated with 10 nM Doxorubicin, 1 μM Nutlin or 6×10^−3 units/ml Bleomycin. All the cells were incubated in the presence of the senescence-inducing agents for at least 7 days without changing the media. Control cells were seeded in 6 well plates 24-48 hours prior the SA-β gal assay.
SA-β galactosidase activity was assessed with the β-Galactosidase Staining Kit from Cell Signaling (#9860) following the manufactured instructions with one single variation: the pH of the “Staining Solution” (supplemented with buffers A and B and X-gal) was carefully adjusted to 6.

PD-L2 mRNA [3] = assay: PD-L1 and PD-L2 mRNA by quantitative RT-PCR in human tumor cell lines; format: cell-based; details: SK-Mel-103 cells, 7 days
Description: Treated cells were not further split and their media was not changed for the duration of the treatment. Control cells were split every 3-4 days as previously described. One week after the start of the treatment, total RNA was isolated from control and treated cells with TRI Reagent (Sigma-Aldrich #T9424) following the manufacturer instructions. The isolated RNA was quantified using a nanodrop machine NanoVue (GE Healthcare). cDNA synthesis was performed with 2-7 μg of total RNA using the “iScript Advanced cDNA Synthesis kit” from BIO-RAD (#1725037). Quantitative real-time PCR was carried out with diluted cDNA (1:10) and “GoTaq qPCR Master Mix” (Promega A6002). Reactions were performed in triplicate in a 15 μl volume reaction mix prepared as follow: 7.5 μl 2X GoTaq qPCR Master Mix; 0.6 μl of pre-mixed primers (10 μM forward primer and 10 μM reverse primer); 1.9 μl nuclease-free water and 5 μl template cDNA (previously diluted 1:10). The qRT-PCR reaction was performed on a 7500 Fast Real-Time PCR System (Applied Biosystems) using “MicroAmp Fast Optical 96-well reaction plate with barcode” (Thermo Fisher #4346906) and “MicroAmp Optical adhesive film” (Thermo Fisher #4311971). […]

SK-Mel-103 cells = assay: 53BP1 immunofluorescence (DNA double-strand breaks); format: cell-based, human; details: 7 days
Description: SK-Mel-103 cells were seeded at 50% confluency on round 12 mm diameter coverslips (Marienfeld #0111520) previously placed inside 24 well plates. The following day, cells were treated with the senescence-inducing agents: 2 μM Palbociclib, […], 1 μM Nutlin and 6×10^−3 units/ml Bleomycin. Treated cells were not further split and their media was not changed for the duration of the treatment (7 days). Control cells were seeded similarly to treated, cells 24-48 hours prior the beginning of the procedure. Seven days after addition of the senescence-inducing agents, control and treated cells were washed with 1×PBS and Fixed on 2% paraformaldehyde-PBS for 10 minutes. The cells were then permeabilized with 0.25% Triton-PBS for 5 minutes, washed twice with 1×PBS and blocked with 5% BSA-PBS for 30 minutes. Next, the cells were incubated for 30 minutes with anti-53BP1 antibody (Abcam #ab172580) previously diluted 1:100 in blocking buffer (5% BSA-PBS), washed 3 times for 10 minutes with 1X PBS and incubated in the dark for 30 additional minutes with the secondary antibody: goat anti-rabbit Alexa Fluor 546 (ThermoFisher #A-11010) diluted 1:400 in blocking buffer. Finally, the cells were washed again 3 times for 10 minutes with 1×PBS and incubated with DAPI (Sigma #D9542) 300 nM in 1×PBS for 10 minutes. All the incubations and washed were performed at room temperature in 24 well plates. […]

PD-L2 mRNA [4] = assay: PD-L1 and PD-L2 mRNA by quantitative RT-PCR in mouse cell lines after 48 hours of genotoxic drugs; format: cell-based; details: C2C12, HcMel3 and HcMel13 cells
Description: C2C12, HcMel3 and HcMel12 (FIG. 3) were treated with 12×10^−3 units/ml bleomycin or doxorubicin 500 nM (C2C12) or 167 nM (HcMel3 and HcMel12) for 48 hours. Total RNA was isolated using TRI Reagent (Sigma-Aldrich #T9424) according to the manufacturer's instructions.
as §1
The qRT-PCR reaction was performed on a 7500 Fast Real-Time PCR System (Applied Biosystems) using “MicroAmp Fast Optical 96-well reaction plate with barcode” (Thermo Fisher #4346906) and “MicroAmp Optical adhesive film” (Thermo Fisher #4311971). The reaction consisted in two holding stages (50° C. for 2:00 min and 95° C. for 10:00 min) and 40 amplification reactions (95° C. for 00:15 min/60° C. for 01:00 min/72° C. for 00:30 min) followed by a Melt Curve Stage. […]

PD-L2 mRNA [5] = assay: PD-L2 mRNA in mouse melanoma cell lines B16F1 and B16F10; format: cell-based; details: B16F1 and B16F10 cells; data not shown
lungs = assay: Bleomycin-induced lung fibrosis in C57BL6 mice; format: in vivo, mouse; details: single intratracheal dose, 14 days
Description: SA-β galactosidase activity was assessed in whole mount lungs (FIG. 5A) and xenografts (FIG. 6B) using the Senescence β-Galactosidase Staining Kit (Cell Signaling #9860). Lungs were fixed for 45 minutes with a solution containing 2% formaldehyde and 0.2% glutaraldehyde in PBS for 45 minutes and washed three times with PBS. Fixed tissues were subsequently stained overnight (16 hours) with X-gal staining solution (adjusted to pH 6.0).
For gene expression analysis lungs were isolated and embedded in optimal cutting temperature (OCT) compound (Leica Biosystems). To obtain total RNA of OCT embedded tissue samples, 10 cryostat sections of 10 μm thickness were cut and excess OCT were removed. Cryosections were lysed in TRI Reagent (Sigma-Aldrich #T9424), pooled and processed according to manufacturer's instructions. cDNA was synthesized using 2 μg of total RNA. cDNA synthesis and RT-qPCR were performed as previously described. The Ct values of the genes of interest were averaged and normalized to the housekeeping gene Gapdh.
Lung fibrosis was induced in C57BL6 mice (ENVIGO) by intratracheal delivery of a single dose of bleomycin (1.5 U/kg) or vehicle (PBS). 14 days after intratracheal injection, lung samples of vehicle (control) or bleomycin (fibrotic)-treated mice were collected for the analysis of SA-β gal activity and gene expression.

C=C(C)[C@H]1Cc2c(ccc3c2O[C@@H]2COc4cc(OC)c(OC)cc4[C@@H]2C3=O)O1 [rotenone]
PD-L2 induction (PD-L2 mRNA [1]): prevented PD-L2 induction

Cc1ccc(S(=O)(=O)/C=C/C#N)cc1 [NFkB inhibitor, BAY 11-7082]
PD-L2 induction (PD-L2 mRNA [1]): prevented PD-L2 induction

CC1(C)CCC(c2ccc(Cl)cc2)=C(CN2CCN(c3ccc(C(=O)NS(=O)(=O)c4ccc(N[C@H](CCN5CCOCC5)CSc5ccccc5)c(S(=O)(=O)C(F)(F)F)c4)cc3)CC2)C1 [Navitoclax]
elimination of senescent cells (senescent cells): efficiently eliminate senescent cells in vitro and in vivo

Nutlin
induction of senescence [2]: induce senescence in the SK-Mel-103 cells
PD-L2 mRNA levels (PD-L2 mRNA [3]): had a similar effect on PD-L2 mRNA levels
DNA damage (53BP1 foci) (SK-Mel-103 cells): absence of 53BP1 foci in the chromatin

CN(C)CC[C@H](CSc1ccccc1)Nc1ccc(S(=O)(=O)NC(=O)c2ccc(N3CCN(Cc4ccccc4-c4ccc(Cl)cc4)CC3)cc2)cc1[N+](=O)[O-] [ABT-737]
elimination of senescent cells (senescent cells): selectively eliminate senescent cells

O=c1c(O)c(-c2ccc(O)c(O)c2)oc2cc(O)cc(O)c12 [Quercetin]
number of damaged and/or senescent cells (senescent cells; Dasatinib and Quercetin used in combination, aged, progeroid and irradiation-exposed mice): reduced the number of damaged and/or senescent cells

COc1cccc2c1C(=O)c1c(O)c3c(c(O)c1C2=O)C[C@@](O)(C(=O)CO)C[C@@H]3O[C@H]1C[C@H](N)[C@H](O)[C@H](C)O1 [doxorubicin, Doxorubicin]
PD-L2 mRNA (PD-L2 mRNA [4]): dramatic increase in PD-L2 mRNA

Bleomycin
induction of senescence [2]: induce senescence in the SK-Mel-103 cells
PD-L2 mRNA levels (PD-L2 mRNA [3]): had a similar effect on PD-L2 mRNA levels
DNA damage (53BP1 foci) (SK-Mel-103 cells): exhibited nuclear 53-BP1 foci
PD-L2 mRNA (PD-L2 mRNA [5]): PD-L2 mRNA up-regulation
PD-L2 mRNA (PD-L2 mRNA [4]): dramatic increase in PD-L2 mRNA
senescent cells (SA-β galactosidase positive staining) in whole fibrotic lungs (lungs): accumulation of senescent cells
PD-L2 and PD-L1 mRNA in fibrotic organs (lungs; lung): significant and specific up-regulation of PD-L2 mRNA, but not of PD-L1 mRNA

CN(C)C(=N)N=C(N)N [metformin]
PD-L2 induction (PD-L2 mRNA [1]): prevented PD-L2 induction

Fc1cc(-c2cccc3ncc(-c4cnn(C5CCNCC5)c4)nc23)cc(F)c1CN1CCOCC1 [JAK inhibitor, NVP-BSK805]
PD-L2 induction (PD-L2 mRNA [1]): prevented PD-L2 induction

From US20240344128A1, “IDENTIFICATION AND ELIMINATION OF DAMAGED AND/OR SENESCENT CELLS” (FUNDACIÓN DEL SECTOR PÜBLICO ESTATAL CENTRO NACIONAL DE …, priority 2017, published 2024)
